# Source: ChEMBL document CHEMBL1201862, “PubChem BioAssay data set” (2004)
# The source made the active and inactive calls.
# Experiments:
# [1] = potency of ADAM10 substrate cleavage blockers – biochemical, QFRET, dose response (AID 743254);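 note: ADAM10 enzyme with the DM2 quenched FRET peptide as substrate; EDANS fluorescence gain as the protease cuts the substrate; inhibitor potency against ADAM10 proteolytic activity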
# [2] = target: Disintegrin and metalloproteinase domain-containing protein 17 (Homo sapiens, UniProt P78536); test: inhibition of ADAM17 substrate cleavage – biochemical, quenched FRET substrate, counter-screen for ADAM10 exosite inhibitor project, dose response (AID 743253)
# Protein skinhead-1 = target: T1, Protein skinhead-1 (Caenorhabditis elegans, UniProt P34707); type: functional
# T1 sequence (P34707 whole entry): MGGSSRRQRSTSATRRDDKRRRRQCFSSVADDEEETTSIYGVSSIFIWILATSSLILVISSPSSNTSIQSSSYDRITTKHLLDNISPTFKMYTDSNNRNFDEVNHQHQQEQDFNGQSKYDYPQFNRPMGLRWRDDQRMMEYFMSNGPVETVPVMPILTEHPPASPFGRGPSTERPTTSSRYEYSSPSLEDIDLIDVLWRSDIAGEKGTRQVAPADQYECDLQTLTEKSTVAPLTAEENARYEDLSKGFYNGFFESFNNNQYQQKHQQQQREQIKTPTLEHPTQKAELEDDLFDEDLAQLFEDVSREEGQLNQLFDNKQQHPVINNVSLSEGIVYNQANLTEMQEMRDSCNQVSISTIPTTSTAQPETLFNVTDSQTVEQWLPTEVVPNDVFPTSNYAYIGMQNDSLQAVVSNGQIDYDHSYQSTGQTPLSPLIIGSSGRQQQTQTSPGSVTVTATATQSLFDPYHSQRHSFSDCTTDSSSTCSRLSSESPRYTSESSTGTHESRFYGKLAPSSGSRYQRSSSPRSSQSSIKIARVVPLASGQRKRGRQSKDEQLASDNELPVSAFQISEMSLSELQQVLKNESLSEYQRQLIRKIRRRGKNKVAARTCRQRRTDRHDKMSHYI
# [3] = target: T2, Oxysterols receptor LXR-beta (Homo sapiens, UniProt P55055); type: functional, cell-based;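 note: agonist activity at LXR measured by a cell-based luminescence readout across a dose range, run as a counterscreen for daf-12 agonists; HEK293 cells with Gal4-LXR fusion and GAL4-driven luciferase reporter; potency for activation of Gal4-LXR reporter so compounds are agonists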
# T2 sequence (P55055 whole entry): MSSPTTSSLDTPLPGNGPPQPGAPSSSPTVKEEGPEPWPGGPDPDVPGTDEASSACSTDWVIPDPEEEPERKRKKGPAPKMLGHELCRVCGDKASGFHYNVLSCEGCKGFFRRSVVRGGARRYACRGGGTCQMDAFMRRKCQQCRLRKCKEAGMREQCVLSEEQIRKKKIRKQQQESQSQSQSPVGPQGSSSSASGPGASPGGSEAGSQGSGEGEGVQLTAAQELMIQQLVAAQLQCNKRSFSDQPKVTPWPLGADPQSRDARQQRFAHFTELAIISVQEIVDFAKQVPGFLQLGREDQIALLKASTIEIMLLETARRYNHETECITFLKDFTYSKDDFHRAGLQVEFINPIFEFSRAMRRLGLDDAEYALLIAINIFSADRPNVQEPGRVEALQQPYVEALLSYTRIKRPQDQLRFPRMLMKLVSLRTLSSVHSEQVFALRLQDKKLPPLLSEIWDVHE
# [4] = system: Streptococcus sp. 'group A'; test: Streptococcus pyogenes SK(-)GAS viability under kanamycin – luminescence, BacTiterGlo, confirmation, counter-screen for streptokinase expression inhibitor project, dose response (AID 1900); type: functional, organism-based
# [5] = target: T3, Heat shock factor protein 1 (Mus musculus, UniProt P38532); test: decrease of HSF1-responsive luciferase luminescence – cell-based, NIH3T3, dose retest, confirmation (AID 2382); type: functional;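 note: NIH3T3 fibroblasts with HSF1-driven luciferase reporter stressed by proteasome inhibitor MG132; luminescence from HSF1-driven luciferase expression after 8 hours of MG132 stress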
# T3 sequence (P38532 whole entry): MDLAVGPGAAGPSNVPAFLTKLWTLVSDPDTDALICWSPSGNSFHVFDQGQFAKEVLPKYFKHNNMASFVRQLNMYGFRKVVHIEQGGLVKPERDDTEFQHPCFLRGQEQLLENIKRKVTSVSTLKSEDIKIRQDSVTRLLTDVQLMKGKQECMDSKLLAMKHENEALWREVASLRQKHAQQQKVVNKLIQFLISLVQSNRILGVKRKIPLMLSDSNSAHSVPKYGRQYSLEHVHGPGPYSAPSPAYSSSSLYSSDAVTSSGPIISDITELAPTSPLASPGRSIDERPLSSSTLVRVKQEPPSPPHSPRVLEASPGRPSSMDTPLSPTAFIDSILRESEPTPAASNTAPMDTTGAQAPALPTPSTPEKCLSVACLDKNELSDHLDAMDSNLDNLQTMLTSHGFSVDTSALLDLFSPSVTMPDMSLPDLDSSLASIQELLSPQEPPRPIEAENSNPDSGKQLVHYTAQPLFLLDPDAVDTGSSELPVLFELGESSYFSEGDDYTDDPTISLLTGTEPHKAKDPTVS
# Streptokinase A = target: T4, Streptokinase A (Streptococcus pyogenes serotype M1, UniProt P10520); test: viability-normalized secreted streptokinase activity reduction – plasminogen activation absorbance, OD405, dose response (AID 1914); type: functional, Streptococcus pyogenes M1 GAS;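 note: secreted streptokinase activity via plasminogen activation per viability signal from cell pellet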
# T4 sequence (P10520 whole entry): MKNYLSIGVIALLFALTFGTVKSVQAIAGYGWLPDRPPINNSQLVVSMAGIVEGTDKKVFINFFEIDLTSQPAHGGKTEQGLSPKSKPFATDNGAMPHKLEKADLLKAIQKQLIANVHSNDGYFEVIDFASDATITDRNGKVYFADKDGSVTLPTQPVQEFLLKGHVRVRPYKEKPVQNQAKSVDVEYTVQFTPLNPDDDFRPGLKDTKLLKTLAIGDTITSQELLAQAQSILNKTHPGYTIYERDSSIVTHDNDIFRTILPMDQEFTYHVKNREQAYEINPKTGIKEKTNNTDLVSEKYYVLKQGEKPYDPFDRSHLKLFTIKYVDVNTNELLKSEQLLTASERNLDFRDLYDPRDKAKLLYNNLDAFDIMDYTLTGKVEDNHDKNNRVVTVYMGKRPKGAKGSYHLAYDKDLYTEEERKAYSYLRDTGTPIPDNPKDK
# Streptococcus = test: GAS UMAA2166 growth inhibition – luminescence, BacTiterGlo, counter-screen for streptokinase expression inhibitor project, dose response (AID 1915); type: functional, organism-based;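 note: potency for reduction of bacterial viability or growth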
# [6] = target: T5, Short transient receptor potential channel 4 (Mus musculus, UniProt Q9QUQ5); test: calcium entry via TRPC4 opening agents – cell-based, HEK293 TRPC4/mu-opioid, Fluo-4 calcium, dose response (AID 434937); type: functional
# T5 sequence (Q9QUQ5 whole entry): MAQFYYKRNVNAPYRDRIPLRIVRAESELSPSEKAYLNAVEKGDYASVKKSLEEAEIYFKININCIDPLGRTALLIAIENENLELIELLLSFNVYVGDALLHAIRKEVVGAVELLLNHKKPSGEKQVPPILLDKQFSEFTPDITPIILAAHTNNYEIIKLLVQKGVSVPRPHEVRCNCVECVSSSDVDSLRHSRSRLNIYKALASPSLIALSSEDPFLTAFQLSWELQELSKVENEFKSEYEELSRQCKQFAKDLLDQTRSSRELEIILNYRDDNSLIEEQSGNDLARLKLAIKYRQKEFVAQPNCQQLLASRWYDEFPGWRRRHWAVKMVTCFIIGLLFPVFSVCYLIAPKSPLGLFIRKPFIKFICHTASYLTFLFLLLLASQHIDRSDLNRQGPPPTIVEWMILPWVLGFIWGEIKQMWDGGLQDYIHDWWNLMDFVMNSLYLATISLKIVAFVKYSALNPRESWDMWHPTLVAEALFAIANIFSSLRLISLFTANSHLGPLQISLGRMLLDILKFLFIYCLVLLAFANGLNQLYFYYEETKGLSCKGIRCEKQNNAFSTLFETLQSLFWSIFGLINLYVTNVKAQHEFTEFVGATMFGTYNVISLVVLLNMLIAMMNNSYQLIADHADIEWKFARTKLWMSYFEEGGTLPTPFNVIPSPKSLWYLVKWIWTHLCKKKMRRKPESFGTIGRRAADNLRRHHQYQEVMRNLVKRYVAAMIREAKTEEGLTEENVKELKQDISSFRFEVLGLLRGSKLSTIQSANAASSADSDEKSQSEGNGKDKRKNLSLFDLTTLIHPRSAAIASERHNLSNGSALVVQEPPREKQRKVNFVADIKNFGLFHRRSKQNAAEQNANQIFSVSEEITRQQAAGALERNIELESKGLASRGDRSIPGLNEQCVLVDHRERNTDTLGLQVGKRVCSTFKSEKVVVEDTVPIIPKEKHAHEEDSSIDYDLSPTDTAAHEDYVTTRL
# Albumin = Albumin (Bos taurus, UniProt P02769); test: Counterscreen for inhibitors of T-cell receptor (TCR)-CD3 interaction: Fluorescence-based biochemical high throughput dose response assay to identify inhibitors of T-cell receptor (TCR)-CD3 interaction using a TAMRA-labeled BSA probe.; type: functional
# [7] = target: T6, Replicative DNA helicase DnaB (Mycobacterium tuberculosis, UniProt P9WMR3); test: DnaB intein splicing inhibitors, dose response, biochemical, cell-free fluorescence (AID 449749); type: functional
# T6 sequence (P9WMR3 whole entry): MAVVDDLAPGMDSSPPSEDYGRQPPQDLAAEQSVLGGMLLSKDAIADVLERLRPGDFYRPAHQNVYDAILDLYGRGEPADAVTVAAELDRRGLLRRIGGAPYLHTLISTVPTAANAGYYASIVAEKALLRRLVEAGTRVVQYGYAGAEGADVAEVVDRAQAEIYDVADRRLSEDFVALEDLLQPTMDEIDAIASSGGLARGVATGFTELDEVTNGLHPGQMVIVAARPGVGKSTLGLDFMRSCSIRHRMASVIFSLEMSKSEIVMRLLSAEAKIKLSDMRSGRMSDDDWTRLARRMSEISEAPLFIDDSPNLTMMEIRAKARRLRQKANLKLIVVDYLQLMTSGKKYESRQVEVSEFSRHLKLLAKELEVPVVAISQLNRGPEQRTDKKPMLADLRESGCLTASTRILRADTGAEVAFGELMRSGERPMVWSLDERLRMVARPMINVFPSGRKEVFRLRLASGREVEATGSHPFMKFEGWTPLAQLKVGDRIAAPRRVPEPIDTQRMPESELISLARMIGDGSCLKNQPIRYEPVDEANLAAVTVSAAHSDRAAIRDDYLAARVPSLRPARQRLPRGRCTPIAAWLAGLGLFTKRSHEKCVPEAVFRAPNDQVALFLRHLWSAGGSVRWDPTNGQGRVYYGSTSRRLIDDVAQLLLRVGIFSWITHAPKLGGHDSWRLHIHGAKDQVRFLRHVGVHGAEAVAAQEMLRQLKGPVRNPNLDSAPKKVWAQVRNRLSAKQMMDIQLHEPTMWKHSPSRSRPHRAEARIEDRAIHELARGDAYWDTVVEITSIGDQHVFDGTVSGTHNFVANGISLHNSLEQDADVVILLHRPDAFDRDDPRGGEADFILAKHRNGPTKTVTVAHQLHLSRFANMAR
# Protein RecA = target: T7, Protein RecA (Mycobacterium tuberculosis, UniProt P9WHJ3); test: Fluorescence Cell-Free Homogeneous Dose Retest to Identify Inhibitors of RecA-Intein Splicing Activity. [Related pubchem assays (depositor defined):AID2097, AID2223, AID489010, AID492950]; type: functional
# T7 sequence (P9WHJ3 whole entry): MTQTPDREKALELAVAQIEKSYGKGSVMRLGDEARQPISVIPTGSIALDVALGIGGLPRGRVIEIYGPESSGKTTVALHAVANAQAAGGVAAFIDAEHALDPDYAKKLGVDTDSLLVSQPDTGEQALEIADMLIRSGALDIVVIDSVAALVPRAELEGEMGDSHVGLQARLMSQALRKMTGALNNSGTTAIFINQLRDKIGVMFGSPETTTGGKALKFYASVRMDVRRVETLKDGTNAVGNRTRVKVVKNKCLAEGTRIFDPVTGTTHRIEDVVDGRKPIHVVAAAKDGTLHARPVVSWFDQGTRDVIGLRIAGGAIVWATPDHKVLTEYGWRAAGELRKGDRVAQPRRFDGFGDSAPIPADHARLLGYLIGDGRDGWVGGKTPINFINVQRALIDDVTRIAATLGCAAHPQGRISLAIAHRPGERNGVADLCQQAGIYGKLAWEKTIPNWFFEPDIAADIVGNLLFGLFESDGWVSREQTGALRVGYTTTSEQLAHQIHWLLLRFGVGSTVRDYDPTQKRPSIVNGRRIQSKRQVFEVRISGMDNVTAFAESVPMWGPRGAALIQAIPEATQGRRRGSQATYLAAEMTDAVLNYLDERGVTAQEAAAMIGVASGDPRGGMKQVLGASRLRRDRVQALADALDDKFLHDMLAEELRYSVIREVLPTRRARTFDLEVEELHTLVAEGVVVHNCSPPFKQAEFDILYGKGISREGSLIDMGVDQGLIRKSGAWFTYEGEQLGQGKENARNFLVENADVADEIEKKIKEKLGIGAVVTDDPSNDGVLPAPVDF
# Protein Wnt-3a = Protein Wnt-3a (Mus musculus, UniProt P27467); test: SAR analysis of small molecule antagonists of Gli-SUFU in a Wnt3a luminescent reporter assay.; type: functional
# [8] = general mammalian cell viability loss – inhibitor set, cherry-pick, set 2, cytotoxicity control for miR-122 modulator project, dose response (AID 720697); type: functional, cell-based
# Sequence of Protein Wnt-3a (P27467 whole entry): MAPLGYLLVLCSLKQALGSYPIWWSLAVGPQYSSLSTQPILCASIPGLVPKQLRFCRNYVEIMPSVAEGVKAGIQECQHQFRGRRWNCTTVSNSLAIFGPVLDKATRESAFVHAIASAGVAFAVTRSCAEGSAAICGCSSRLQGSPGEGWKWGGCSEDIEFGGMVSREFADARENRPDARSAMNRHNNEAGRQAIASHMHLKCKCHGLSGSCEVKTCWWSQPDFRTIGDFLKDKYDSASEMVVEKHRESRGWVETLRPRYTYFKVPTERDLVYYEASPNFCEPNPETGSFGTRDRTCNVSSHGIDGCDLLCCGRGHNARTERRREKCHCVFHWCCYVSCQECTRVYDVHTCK
# Sequence of Disintegrin and metalloproteinase domain-containing protein 17 (P78536 whole entry, the tested form may be a part): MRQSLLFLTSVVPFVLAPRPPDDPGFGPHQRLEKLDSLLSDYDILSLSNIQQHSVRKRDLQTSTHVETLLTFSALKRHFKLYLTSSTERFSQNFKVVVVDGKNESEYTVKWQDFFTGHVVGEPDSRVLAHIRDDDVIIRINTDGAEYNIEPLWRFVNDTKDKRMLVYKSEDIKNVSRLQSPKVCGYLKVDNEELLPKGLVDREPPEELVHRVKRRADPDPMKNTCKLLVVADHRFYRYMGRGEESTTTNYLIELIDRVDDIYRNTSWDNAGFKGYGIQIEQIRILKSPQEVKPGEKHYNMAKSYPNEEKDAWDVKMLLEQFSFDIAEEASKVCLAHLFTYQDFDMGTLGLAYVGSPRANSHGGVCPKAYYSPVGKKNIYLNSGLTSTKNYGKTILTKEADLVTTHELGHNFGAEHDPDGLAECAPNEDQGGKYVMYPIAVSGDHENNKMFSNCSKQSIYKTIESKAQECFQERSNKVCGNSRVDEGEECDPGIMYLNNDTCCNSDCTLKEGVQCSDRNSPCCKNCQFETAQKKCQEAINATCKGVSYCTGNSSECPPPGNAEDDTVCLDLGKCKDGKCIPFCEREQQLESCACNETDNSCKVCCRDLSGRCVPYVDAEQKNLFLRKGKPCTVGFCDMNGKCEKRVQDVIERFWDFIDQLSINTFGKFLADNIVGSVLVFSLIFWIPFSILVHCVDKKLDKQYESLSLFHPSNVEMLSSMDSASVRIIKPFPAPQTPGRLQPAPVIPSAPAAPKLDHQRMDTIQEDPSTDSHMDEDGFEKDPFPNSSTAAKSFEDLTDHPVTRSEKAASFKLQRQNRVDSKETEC
# Sequence of Albumin (P02769 whole entry): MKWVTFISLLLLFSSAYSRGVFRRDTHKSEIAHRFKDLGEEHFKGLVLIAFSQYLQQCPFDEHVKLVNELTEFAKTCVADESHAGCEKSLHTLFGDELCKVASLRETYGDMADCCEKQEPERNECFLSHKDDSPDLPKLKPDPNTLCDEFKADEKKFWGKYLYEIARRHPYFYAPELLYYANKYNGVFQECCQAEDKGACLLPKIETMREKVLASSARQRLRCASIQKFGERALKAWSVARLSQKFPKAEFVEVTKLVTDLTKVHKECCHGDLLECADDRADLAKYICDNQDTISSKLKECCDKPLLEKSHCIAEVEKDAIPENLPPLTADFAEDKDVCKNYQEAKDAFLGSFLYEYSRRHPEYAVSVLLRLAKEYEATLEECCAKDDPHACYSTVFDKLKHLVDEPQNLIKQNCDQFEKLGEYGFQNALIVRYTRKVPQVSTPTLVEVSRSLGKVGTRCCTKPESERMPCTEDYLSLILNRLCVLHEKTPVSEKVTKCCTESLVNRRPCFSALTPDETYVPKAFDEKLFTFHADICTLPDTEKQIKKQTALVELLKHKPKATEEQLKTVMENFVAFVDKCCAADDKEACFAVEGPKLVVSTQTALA
structure (smiles),measurement,setting,value
CN(C)c1ccc(C(CNS(=O)(=O)c2ccc(F)c(F)c2)c2c[nH]c3ccccc23)cc1 (stereo not drawn),IC50,[1],> 7.72 µM (active)
same,IC50,[2],> 69.5 µM (inactive)
Clc1ccc(OCCSc2ncccn2)c(Br)c1,IC50,Protein skinhead-1,40.4 µM (active)
same,EC50,[3],> 67.5 µM (inactive)
COc1ccc(C(=O)NNC(=S)NC(=O)c2cccs2)cc1,EC50,[4],3.71 µM (active)
same,EC50,[5],> 195 µM (not active)
same,EC50,Streptokinase A,> 150 µM (not active)
same,EC50,Streptococcus,15.1 µM (active)
same,EC50,[6],10.6 µM (active)
same,IC50,Albumin,> 94 µM (inactive)
CCOC(=O)c1ccc(N2C(=O)c3[nH]nc(-c4ccco4)c3C2c2ccc([N+](=O)[O-])cc2)cc1 (stereo not drawn),AC50,[7],2.92 µM (active)
same,EC50,Protein RecA,56.2 µM (active)
same,IC50,[1],17 µM (inactive)
same,IC50,[2],> 69.5 µM (inactive)
CCOC(=O)c1sc2nc3c(cc2c1N)COC(C)(CC)C3 (stereo not drawn),EC50,[3],> 67.5 µM (inactive)
O=C(Nc1cc(N2CCCCC2)ncn1)c1ccc(Cl)cc1,IC50,Protein Wnt-3a,> 21.8 µM (inactive)
O=C(Nc1cc(N2CCCCC2)ncn1)c1ccccc1F,IC50,Protein Wnt-3a,< 0.0426 µM (active)
C/C=C/c1ccc([C@@H]2[C@@H](CO)N[C@@H]2CN(CC)C(=O)CN2CCOCC2)cc1,AC50,[8],0.431 µM (active)
